{
  "source": "patent US12643892B2",
  "about": "“Pyridazinone compounds for the treatment of neuromuscular diseases” (Edgewise Therapeutics, Inc., priority 2020, dated 2026)",
  "data": [
    {"test_system": "embryos from zebrafish model of DMD", "assay": "not given", "settings": "FIG. 2, Li and Amer, PLoSONE, 2015; cited from earlier work", "values": [
      {"molecule": "Cc1ccc(S(=O)(=O)NCc2ccccc2)cc1", "note": "[BTS, N-benzyl-p-tolyl-sulfonamide]", "protection of muscles from pathological muscle derangement": "protect muscles from pathological muscle derangement"}
    ]},
    {"biological_target": "Skeletal Myofibril ATPase (Rabbit Psoas myofibrils)", "assay": "Skeletal Myofibril ATPase Assay", "type": "biochemical", "settings": "PK/LDH-coupled NADH absorbance at 340 nm", "how_it_was_run": "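Rabbit psoas myofibril ATPase read through a PK-LDH coupled system, as NADH loss at 340 nm every 1.5-2 min for 1 h, in PIPES/CaCl2/EGTA pCa buffer at pH 7.0. Absorbance change normalized to 1% DMSO vehicle (100%) and no change (0%). IC50 from a four-parameter logistic fit with bottom constrained ≥0.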", "units": {"IC50": "µM"}, "values": [
      {"molecule": "Cc1ccc(-c2ccc(=O)n(CC(=O)NC(C)C)n2)s1", "note": "[Compound 33, N-isopropyl-2-(3-(5-methylthiophen-2-yl)-6-oxopyridazin-1(6H)-yl)acetamide]", "IC50": "≤ 10"},
      {"molecule": "COCCn1nc(-c2nc(-c3ccc(F)c(F)c3)no2)ccc1=O", "note": "[Compound 75, 6-(3-(3,4-difluorophenyl)-1,2,4-oxadiazol-5-yl)-2-(2-methoxyethyl)pyridazin-3(2H)-one]", "IC50": "10 to 100"},
      {"molecule": "Cc1ccc(-c2ccc(=O)n(CC(=O)N(C)c3ccccc3)n2)s1", "note": "[Compound 38, N-methyl-2-(3-(5-methylthiophen-2-yl)-6-oxopyridazin-1(6H)-yl)-N -phenylacetamide]", "IC50": "10 to 100"},
      {"molecule": "Cc1cccc(-c2noc(-c3ccc(=O)n(Cc4cncc(C#N)c4)c3)n2)c1", "note": "[Compound 98, 5-((2-oxo-5-(3-(m-tolyl)-1,2,4-oxadiazol-5-yl)pyridin-1(2H)-yl)methyl)nicotinoni trile]", "IC50": "≤ 10"},
      {"molecule": "O=c1ccc(-c2cccs2)nn1Cc1cccc(C(F)(F)F)c1", "note": "[Compound 59, 6-(thiophen-2-yl)-2-(3-(trifluoromethyl)benzyl)pyridazin-3(2H)-one]", "IC50": "> 100"},
      {"molecule": "Cc1ccc(-c2noc(-c3ccc(=O)n(Cc4cccc(F)c4)n3)n2)cc1", "note": "[Compound 71, 2-(3-fluorobenzyl)-6-(3-(p-tolyl)-1,2,4-oxadiazol-5-yl)pyridazin-3(2H)-one]", "IC50": "> 100"},
      {"molecule": "CCNC(=O)Cn1nc(-c2nc(-c3cccc(Cl)c3F)no2)ccc1=O", "note": "[Compound 3, 2-(3-(3-(3-chloro-2-fluoropheny)-1,2,4-oxadiazol-5-yl)-6-oxopyridazin-1(6H)-yl)-N-ethylacetamide]", "IC50": "≤ 10"},
      {"molecule": "CCNC(=O)Cn1nc(-c2nc(C3CC3)no2)ccc1=O", "note": "[Compound 15, 2-(3-(3-cyclopropyl-1,2,4-oxadiazol-5-yl)-6-oxopyridazin-1(6H)-yl)-N-ethylacetamide]", "IC50": "10 to 100"},
      {"molecule": "Cc1cccc(-c2noc(-c3ccc(=O)n(Cc4nnc(C)o4)c3)n2)c1", "note": "[Compound 100, 1-((5-methyl-1,3,4-oxadiazol-2-yl)methyl)-5-(3-(m-tolyl)-1,2,4-oxadiazol-5-yl)pyridin-2(1H)-one]", "IC50": "≤ 10"},
      {"molecule": "COc1ccccc1NC(=O)Cn1nc(-c2cccs2)ccc1=O", "note": "[Compound 40, N-(2-methoxypheny1)-2-(6-oxo-3-(thiophen-2-yl)pyridazin-1(6H)-yl)acetamide]", "IC50": "10 to 100"},
      {"molecule": "O=c1ccc(-c2nnc(-c3cccc(Cl)c3)o2)nn1Cc1ccccc1", "note": "[Compound 73, 2-benzyl-6-(5-(3-chlorophenyl)-1,3,4-oxadiazol-2-yl)pyridazin-3(2H)-one]", "IC50": "≤ 10"},
      {"molecule": "CCNC(=O)Cn1nc(-c2nc(-c3cc(Cl)ccc3F)no2)ccc1=O", "note": "[Compound 1, 2-(3-(3-(5-chloro-2-fluorophenyl)-1,2,4-oxadiazol-5-yl)-6-oxopyridazin-1(6H)-yl)-N-ethylacetamide]", "IC50": "≤ 10"},
      {"molecule": "O=c1ccc(-c2nc(-c3ccc(F)cc3)no2)cn1Cc1cccnc1", "note": "[Compound 104, 5-(3-(4-fluorophenyl)-1,2,4-oxadiazol-5-yl)-1-(pyridin-3-ylmethyl)pyridin-2(1H)-one]", "IC50": "≤ 10"},
      {"molecule": "Cc1cccc(-c2noc(-c3ccc(=O)n(Cc4ccc(Cl)nc4)c3)n2)c1", "note": "[Compound 87, 1-((6-chloropyridin-3-yl)methyl)-5-(3-(m-tolyl)-1,2,4-oxadiazol-5-yl)pyridin-2(1H)-one]", "IC50": "≤ 10"},
      {"molecule": "O=C(Cn1nc(-c2cccs2)ccc1=O)Nc1ccccc1F", "note": "[Compound 41, N-(2-fluorophenyl)-2-(6-oxo-3-(thiophen-2-yl)pyridazin-1(6H)-yl)acetamide]", "IC50": "10 to 100"},
      {"molecule": "CCNC(=O)Cn1nc(-c2nc(-c3cncc(C(F)(F)F)c3)no2)ccc1=O", "note": "[Compound 10, N-ethyl-2-(6-oxo-3-(3-(5-(trifluoromethyl)pyridin-3-yl)-1,2,4-oxadiazol-5-yl)pyridazin-1(6H)-yl)acetamide]", "IC50": "≤ 10"},
      {"molecule": "O=c1ccc(-c2nc(-c3cncc(F)c3)no2)cn1Cc1cccnc1", "note": "[Compound 108, 5-(3-(5-fluoropyridin-3-yl)-1,2,4-oxadiazol-5-yl)-1-(pyridin-3-ylmethyl)pyridin-2(1H)-one]", "IC50": "10 to 100"},
      {"molecule": "O=c1ccc(-c2nc(-c3cccc(Cl)c3)no2)cn1Cc1cccnc1", "note": "[Compound 91, 5-(3-(3-chlorophenyl)-1,2,4-oxadiazol-5-yl)-1-(pyridin-3-ylmethyl)pyndin-2(1H)-one]", "IC50": "≤ 10"},
      {"molecule": "Cn1cc(-c2ccc(=O)n(CC(=O)NCc3ccccc3Cl)n2)cn1", "note": "[Compound 54, N-(2-chlorobenzyl)-2-(3-(1-methyl-1H-pyrazol-4-yl)-6-oxopyridazin-1(6H)-yl)acetamide]", "IC50": "10 to 100"},
      {"molecule": "O=c1ccc(-c2cccs2)nn1Cc1cccc(Cl)c1", "note": "[Compound 56, 2-(3-chlorobenzyl)-6-(thiophen-2-yl)pyridazin-3(2H)-one]", "IC50": "≤ 10"},
      {"molecule": "O=c1ccc(-c2nc(-c3ccccc3Cl)no2)cn1Cc1noc(C2CC2)n1", "note": "[Compound 113, 5-(3-(2-chlorophenyl)-1,2,4-oxadiazol-5-yl)-1-((5-cyclopropyl-1,2,4-oxadiazol-3-yl)methyl)pyridin-2(lH)-one]", "IC50": "> 120"},
      {"molecule": "COc1ccc(NC(=O)Cn2nc(-c3ccco3)ccc2=O)c(OC)c1", "note": "[Compound 52, N-(2,4-dimethoxyphenyl)-2-(3-(furan-2-yl)-6-oxopyridazin-1(6H)-yl)acetamide]", "IC50": "10 to 100"},
      {"molecule": "CC(C)NC(=O)Cn1nc(-c2cccs2)ccc1=O", "note": "[Compound 49, N-isopropyl-2-(6-oxo-3-(thiophen-2-yl)pyridazin-1(6H)-yl)acetamide]", "IC50": "> 100"},
      {"molecule": "Cc1cncc(Cn2cc(-c3nc(-c4cccc(C)c4)no3)ccc2=O)c1", "note": "[Compound 95, 1-((5-methylpyridin-3-yl)methyl)-5-(3-(m-tolyl)-1,2,4-oxadiazol-5-yl)pyridin-2(1H)-one]", "IC50": "≤ 10"},
      {"molecule": "CCNC(=O)Cn1nc(-c2nc(-c3cccc(OC(F)F)c3)no2)ccc1=O", "note": "[Compound 7, 2-(3-(3-(3-(difluoromethoxy)phenyl)-1,2,4-oxadiazol-5-yl)-6-oxopyridazin-1(6H)-yl)-N-ethylacetamide]", "IC50": "≤ 10"},
      {"molecule": "O=c1ccc(-n2cncn2)nn1Cc1cccc(Cl)c1", "note": "[Compound 78, 2-(3-chlorobenzyl)-6-(1H-1,2,4-triazol-1-yl)pyridazin-3(2H)-one]", "IC50": "10 to 100"},
      {"molecule": "O=c1ccc(-c2nc(-c3cncc(Cl)c3)no2)nn1Cc1cncc(F)c1", "note": "[Compound 65, 6-(3-(5-chloropyridin-3-yl)-1,2,4-oxadiazol-5-yl)-2-((5-fluoropyridin-3-yl)methyl)pyridazin-3(2H)-one]", "IC50": "≤ 10"},
      {"molecule": "Cc1ccc(-c2ccc(=O)n(CC(=O)NCc3ccccc3)n2)s1", "note": "[Compound 35, N-benzyl-2-(3-(5-methylthiophen-2-yl)-6-oxopyridazin-1(6H)-yl)acetamide]", "IC50": "10 to 100"},
      {"molecule": "CC(c1cncc(F)c1)n1cc(-c2nc(-c3cccc(Cl)c3)no2)ccc1=O", "note": "(stereo not shown) [Compound 117, 5-(3-(3-chlorophenyl)-1,2,4-oxadiazol-5-yl)-1-(1-(5-fluoropyridin-3-yl)ethyl)pyridin-2(1H)-one]", "IC50": "> 120"},
      {"molecule": "Cc1cccc(-c2noc(-c3ccc(=O)n(Cc4ccc(C)nc4)c3)n2)c1", "note": "[Compound 96, 1-((6-methylpyridin-3-yl)methyl)-5-(3-(m-tolyl)-1,2,4-oxadiazol-5-yl)pyridin-2(1H)-one]", "IC50": "≤ 10"},
      {"molecule": "Cc1cccc(-c2noc(-c3ccc(=O)n(Cc4ncc(C)s4)c3)n2)c1", "note": "[Compound 92, 1-((5-methylthiazol-2-yl)methyl)-5-(3-(m-tolyl)-1,2,4-oxadiazol-5-yl)pyridin-2(1H)-one]", "IC50": "≤ 10"},
      {"molecule": "Cc1cccc(-c2noc(-c3ccc(=O)n(Cc4cccnc4)c3)n2)c1", "note": "[Compound 109, 1-(pyridin-3-ylmethyl)-5-(3-(m-tolyl)-1,2,4-oxadiazol-5-yl)pyridin-2(1H)-one]", "IC50": "10 to 100"},
      {"molecule": "O=c1ccc(-c2cccs2)nn1Cc1cccc(F)c1", "note": "[Compound 57, 2-(3-fluorobenzyl)-6-(thiophen-2-yl)pyridazin-3(2H)-one]", "IC50": "10 to 100"},
      {"molecule": "Cn1cnc(-c2ccc(=O)n(CC(=O)NCc3ccccc3Cl)n2)c1", "note": "[Compound 55, N-(2-chlorobenzyl)-2-(3-(1-methyl-1H-imidazol-4-yl)-6-oxopyridazin-1(6H)-yl)acetamide]", "IC50": "> 100"},
      {"molecule": "CCNC(=O)Cn1nc(-c2nc(-c3cncc(Cl)c3)no2)ccc1=O", "note": "[Compound 12, 2-(3-(3-(5-chloropyridin-3-yl)-1,2,4-oxadiazol-5-yl)-6-oxopyridazin-1(6H)-yl)-N-ethylacetamide]", "IC50": "≤ 10"},
      {"molecule": "Cc1cccc(-c2noc(-c3ccc(=O)n(Cc4cccnc4C#N)c3)n2)c1", "note": "[Compound 112, 3-((2-oxo-5-(3-(m-tolyl)-1,2,4-oxadiazol-5-yl)pyridin-1(2H)-yl)methyl)picolinonitrile]", "IC50": "> 120"}
    ]}
  ]
}
